Experimental data as given in article PMC9608663, “Anti-Alzheimer and Antioxidant Effects of Nelumbo nucifera L. Alkaloids, Nuciferine and Norcoclaurine in Alloxan-Induced Diabetic Albino Rats” (Pharmaceuticals, 2022).
Where “and” joins values, the source holds several entries; their conditions need not be identical. Equal values may be shown once.

Tests used:
[1] = system: alloxan-induced diabetic rats; experiment: Blood glucose level in alloxan-induced diabetic rats; type: in vivo, albino rats (Sprague–Dawley); conditions: 10 mg/kg b.w./day
Procedure: (§1) Forty-two (42) fully matured albino rats (200–250 g b.w.) of Sprague–Dawley types were purchased from National Institute of Health, Islamabad, Pakistan and kept under normal conditions for 15 days with 12-h dark/light rotation.
(§2) Alloxan monohydrate injection (100 mg/kg) was applied to experimental rats to induce diabetic conditions followed by giving 5% glucose water for 28 h in order to decrease the death probability in alloxan-induced rates from hyperglycemic shock. Over 300 mg/dL (3 mg/mL) blood glucose level (fasting blood plasma) was considered diabetic and a selective parameter for further study.
(§3) The rats were divided into seven groups (six rats in each group). Normal and diabetic control groups I and II, standard glibenclamide (10 mg/kg) group III, N. nucifera crude (100–200 mg/kg) groups IV and V and nuciferine and norcoclaurine (10 mg/kg) group VI and VII. Rats were anesthetized after 15 days and their organ sections were collected for different activities. Blood was collected from each rat and centrifuged at 4000 rpm for 10 min for antioxidant enzyme activities. The brain was homogenized in 100 mM Tris buffer (Sigma, Hamburg, Germany) (pH 8.0).

[2] = Body weight of alloxan-induced diabetic rats; type: in vivo, albino rats (Sprague–Dawley); conditions: 10 mg/kg b.w./day
Procedure: as §1, §2, §3

[3] = system: lipid peroxidation (TBARS); experiment: Lipid peroxidation assay (TBARS) in blood of diabetic rats; type: in vivo, albino rats (Sprague–Dawley); conditions: 10 mg/kg, 15 days
Procedure: as §3
The lipid peroxidation activity in the blood sample was determined by slight modification in Sohal’s method. The reaction mixtures containing homogenate sample (0.2 mL) in 0.1 M phosphate buffer pH 7.4 (0.58 mL), ferric chloride (0.02 mL) and ascorbic acid (0.2 mL). The reaction mixture was incubated at […] for 1 h and stopped the reaction by adding 10% trichloro-acetic acid. The reaction mixture was continuously boiled, shaken for 20 min in a water bath and centrifuged for 10 min. The formation of TBARS was monitored at wavelength of 535 nm.

[4] = system: superoxide dismutase (SOD); experiment: Superoxide dismutase assay (SOD) in blood of diabetic rats; type: in vivo, albino rats (Sprague–Dawley); conditions: 10 mg/kg, 15 days
Procedure: as §3
Superoxide dismutase activity was determined by an assay mixture containing 0.3 mL blood sample, 1.2 mL sodium pyrophosphate, 0.1 mL phenazine methosulphate and 0.2 mL NADH. The reaction was stopped within a minute by adding 1 mL of glacial acetic acid and the concentration of product was monitored at 560 nm.

[5] = system: catalase (CAT); experiment: Catalase assay (CAT) in blood of diabetic rats; type: in vivo, albino rats (Sprague–Dawley); conditions: 10 mg/kg, 15 days
Procedure: as §3, with “8.0). Protein variation for several brain structures was measured followed by protein determination of striatum (0.3 mg/mL), hippocampus (0.6.0 mg/mL), cerebellum (0.7 mg/mL) and hypothalamus (0.4 mg/mL and cerebral cortex (0.8.0 mg/mL)).” for “8.0).”
Catalase activity was determined in blood samples by modified method of Chance and Maehly. The assay mixture comprised 0.1 mL blood serum, 2.5 mL phosphate buffer (pH 5) and 0.4 mL H2O2 while the absorbance was measured at 240 nm.

[6] = system: glutathione peroxidase (GPx); experiment: Glutathione peroxidase assay (GSH-Px) in blood of diabetic rats; type: in vivo, albino rats (Sprague–Dawley); conditions: 10 mg/kg, 15 days
Procedure: as §3
Glutathione peroxidase assay was carried out by reaction mixtures of 0.1 mL blood serum with 1.49 mL phosphate buffer (pH 7.4), 0.1 mL EDTA, 0.1 mL sodium azide, 0.1 mL NADPH, 0.05 mL GSH and 0.01 mL H2O2. The intensity of color loss of NADPH was measured at 340 nm.

[7] = system: reduced glutathione (GSH); experiment: Reduced glutathione assay (GSH) in blood of diabetic rats; type: in vivo, albino rats (Sprague–Dawley); conditions: 10 mg/kg, 15 days
Procedure: as §3
GSH assay was carried out by mixing the blood serum with substrate DTNB by the modified method of Biessels.

[8] = biological target: T1, acetylcholinesterase (AChE) (Rattus norvegicus, UniProt P37136); experiment: AChE activity in brain regions of diabetic rats; type: in vivo; conditions: 10 mg/kg, 15 days; for AChE activity, Cerebellum: cerebellum homogenate; for AChE activity, Cerebral Cortex: cerebral cortex homogenate; for AChE activity, Hippocampus: hippocampus homogenate; for AChE activity, Hypothalamus: hypothalamus homogenate; for AChE activity, Striatum: striatum homogenate
T1 construct: from tissue; host or cells: rat brain homogenate (cerebral cortex, cerebellum, hypothalamus, striatum, hippocampus)
T1 sequence (P37136 32-614): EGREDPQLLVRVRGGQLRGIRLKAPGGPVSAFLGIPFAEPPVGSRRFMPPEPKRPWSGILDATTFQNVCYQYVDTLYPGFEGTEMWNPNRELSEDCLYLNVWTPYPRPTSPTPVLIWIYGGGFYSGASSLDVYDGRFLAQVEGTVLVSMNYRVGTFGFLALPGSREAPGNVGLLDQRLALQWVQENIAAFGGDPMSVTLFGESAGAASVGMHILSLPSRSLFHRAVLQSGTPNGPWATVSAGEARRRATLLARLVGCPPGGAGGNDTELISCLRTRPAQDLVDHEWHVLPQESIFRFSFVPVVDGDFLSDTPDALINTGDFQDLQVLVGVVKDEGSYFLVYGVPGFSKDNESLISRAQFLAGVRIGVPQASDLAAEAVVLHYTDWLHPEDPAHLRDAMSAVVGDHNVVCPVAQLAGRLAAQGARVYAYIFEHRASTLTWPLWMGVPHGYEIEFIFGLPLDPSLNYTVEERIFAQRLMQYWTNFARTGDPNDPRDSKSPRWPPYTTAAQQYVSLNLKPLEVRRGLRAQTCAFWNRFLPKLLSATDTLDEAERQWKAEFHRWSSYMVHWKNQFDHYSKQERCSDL
Procedure: as §3
(§4) In the brain (hippocampus, cerebellum, hypothalamus, striatum and cerebral cortex) and in the blood, AChE activity was measured using calorimetric method with slight modification. The sample of 0.1 mL brain homogenate as well as blood serum (containing 100 mM potassium phosphate buffer (pH 7.5), 1 mM DTNB and 0.8 mM […] (Sigma, Hamburg, Germany) were tested as AChE enzyme. The increase in enzyme activity was measured at 412 nm after the formation of the yellow-colored anion of 4, 4-ditheo-bis-nitrobenzoic acid and experiments were performed in triplicates.

[9] = system: acetylcholinesterase (AChE); type: in vivo; conditions: blood of diabetic rats, 10 mg/kg, 15 days; table title: AChE activity, µmol AcSCh/h/mg of protein
Procedure: as §3, §4

| Structure (SMILES) | Blood Glucose Level ([1]; day 0) [mg/mL] | Blood Glucose Level ([1]; day 5) [mg/mL] | Blood Glucose Level ([1]; day 10) [mg/mL] | Variations in Body Weight ([2]; day 0) [g] | Variations in Body Weight ([2]; day 5) [g] | Variations in Body Weight ([2]; day 10) [g] | Variations in Body Weight ([2]; day 15, 10 mg/kg/day) | TBARS [3] [nmol MDA/mg Protein] | SOD [4] [SOD/mg Protein] | CAT [5] [E/min/mg Protein] | GPx [6] [nmol NADPH/min/mg Protein] | GSH [7] [GSH/mg Protein] | AChE activity, Cerebellum [8] | AChE activity, Cerebral Cortex [8] | AChE activity, Hippocampus [8] | AChE activity, Hypothalamus [8] | AChE activity, Striatum [8] | AChE activity [9] [%] | Blood Glucose Level ([1]; day 15, 10 mg/kg/day) [mg/mL] | further results |
| --- | --- | --- | --- | --- | --- | --- | --- | --- | --- | --- | --- | --- | --- | --- | --- | --- | --- | --- | --- | --- |
| Oc1ccc(CC2NCCc3cc(O)c(O)cc32)cc1 (stereo not shown) [norcoclaurine] | 2.10 ± 4.67 | 1.70 ± 3.25 | 1.58 ± 1.43 | 178.22 ± 7.61 | 159.85 ± 1.34 | 169.11 ± 3.01 | 178.91 ± 1.32 g | 1.98 ± 0.9 | 6.2 ± 0.7 | 5.1 ± 0.3 | 6.70 ± 0.89 | 76.68 ± 0.4 | 57 ± 1.40 µmol AcSCh/h/mg of protein | 60 ± 0.80 µmol AcSCh/h/mg of protein | 48 ± 0.20 µmol AcSCh/h/mg of protein | 60 ± 4.30 µmol AcSCh/h/mg of protein | 56 ± 0.90 µmol AcSCh/h/mg of protein | 55 ± 1.23 |  | Blood Glucose Level ([1]; day 15): 1.08 ± 3.15 mg/mL |
| COc1cc2c3c(c1OC)-c1ccccc1C[C@H]3N(C)CC2 [nuciferine] | 2.05 ± 3.85 | 1.64 ± 2.51 | 1.42 ± 1.23 | 177.43 ± 4.19 | 161.97 ± 2.21 | 173.22 ± 2.67 | 182.33 ± 3.05 g and 177.33 ± 3.05 g | 1.60 ± 0.8 | 7.1 ± 0.2 | 6.16 ± 0.7 | 7.98 ± 0.9 | 86.96 ± 0.7 | 53 ± 1.70 µmol AcSCh/h/mg of protein | 56 ± 1.41 µmol AcSCh/h/mg of protein | 41 ± 1.10 µmol AcSCh/h/mg of protein | 55 ± 3.20 µmol AcSCh/h/mg of protein | 50 ± 1.90 µmol AcSCh/h/mg of protein | 42 ± 7.43 | 1.00 ± 1.45 |  |
| COc1ccc(Cl)cc1C(=O)NCCc1ccc(S(=O)(=O)NC(=O)NC2CCCCC2)cc1 [glibenclamide, reference compound] | 2.00 ± 1.85 | 1.54 ± 1.68 | 1.37 ± 1.20 | 180.11 ± 1.90 | 169.54 ± 2.41 | 171.23 ± 2.07 |  | 1.55 ± 0.8 | 5.91 ± 0.3 | 6.45 ± 3.9 | 7.80 ± 1.6 | 89.52 ± 4.74 | 50 ± 1.20 µmol AcSCh/h/mg of protein | 55 ± 2.06 µmol AcSCh/h/mg of protein | 43 ± 1.10 µmol AcSCh/h/mg of protein | 50 ± 2.15 µmol AcSCh/h/mg of protein | 46 ± 1.59 µmol AcSCh/h/mg of protein | 45 ± 2.01 | 0.94 ± 1.20 | Blood Glucose Level ([1]; day 15, listed as glibencamide, 10 mg/kg/day): 0.94 ± 1.20 mg/mL; Variations in Body Weight ([2]; day 15): 179.50 ± 1.40 g |
